Active and inactive are the calls of the source. No cut-off for these calls is given here.

Usually Ki stands for a measure of affinity in units of concentration, obtained from inhibition or displacement. Low readings indicate tighter binding, high ones weaker binding. What is called ED50 is the dose that gives a 50% effect, or the effect in half of the subjects. High values mean weaker potency, low ones greater potency.

For one data set, the target named is Adenosine receptor A2a (Homo sapiens, UniProt P29274). Description: Antagonist activity at adenosine A2A receptor. It is filed as functional.
A further data set addresses T1, Adenosine receptor A1 (Homo sapiens, UniProt P30542).
T1 sequence (P30542 whole entry): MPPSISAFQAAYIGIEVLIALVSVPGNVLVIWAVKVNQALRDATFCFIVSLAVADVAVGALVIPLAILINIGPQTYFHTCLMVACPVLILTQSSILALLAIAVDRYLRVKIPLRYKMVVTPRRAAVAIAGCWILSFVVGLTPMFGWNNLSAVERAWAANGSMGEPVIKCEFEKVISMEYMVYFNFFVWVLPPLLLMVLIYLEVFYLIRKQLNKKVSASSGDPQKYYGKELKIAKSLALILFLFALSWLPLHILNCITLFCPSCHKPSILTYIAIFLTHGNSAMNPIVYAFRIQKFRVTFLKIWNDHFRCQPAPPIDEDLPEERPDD
Description: Antagonist activity at adenosine A1 receptor. Format: functional.

Data set [1] concerns Mus musculus. Description: Inhibition of haloperidol-induced catalepsy in po dosed mouse. It is filed as functional.
A short description of data set [2]: Mutagenic activity in Salmonella Typhimurium by Ames assay. Format: toxicity. The settings on record: salmonella enterica subsp. enterica serovar typhimurium. (In the Ames test, an excess of revertant colonies over the control signals mutagenicity.)
Data set [3] relates to Mus musculus. In words: Inhibition of haloperidol-induced catalepsy in mouse at 10 mg/kg, po. Also noted: dose 10 mg/kg. Format: functional, organism-based.

Sequence of Adenosine receptor A2a (P29274 whole entry): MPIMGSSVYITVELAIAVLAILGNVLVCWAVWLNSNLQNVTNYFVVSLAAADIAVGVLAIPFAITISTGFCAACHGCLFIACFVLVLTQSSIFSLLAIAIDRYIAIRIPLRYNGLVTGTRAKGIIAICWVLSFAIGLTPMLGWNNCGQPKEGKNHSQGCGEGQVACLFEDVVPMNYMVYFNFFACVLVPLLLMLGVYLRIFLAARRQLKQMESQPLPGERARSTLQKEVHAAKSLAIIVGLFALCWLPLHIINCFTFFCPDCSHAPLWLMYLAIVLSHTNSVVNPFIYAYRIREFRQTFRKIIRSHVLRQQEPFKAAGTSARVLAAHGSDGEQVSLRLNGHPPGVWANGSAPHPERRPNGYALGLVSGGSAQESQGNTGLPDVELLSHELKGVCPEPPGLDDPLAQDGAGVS

For `Nc1nc(-c2ccccc2)c2c(n1)-c1c(CN3CCCC3)cccc1C2=O`, the Ki at Adenosine receptor A2a was 2.5 nM; on Adenosine receptor A1, 116 nM. Moreover, the ED50 in the data set with Mus musculus [1] was 3.8 mg/kg.
On to `CN(C)CCN(C)c1ccc(-c2nc(N)nc3c2C(=O)c2ccccc2-3)o1`, for which the inhibition constant Ki was 10.5 nM on Adenosine receptor A2a and 40 nM on Adenosine receptor A1. Moreover, the ED50 in the data set on Mus musculus [1] stood at 17.1 mg/kg. The Activity entry in data set [2] is “Non-toxic”.
As for `COc1cccc(-c2nc(N)nc3c2C(=O)c2ccccc2-3)c1`, the results for the Ki on Adenosine receptor A2a and on Adenosine receptor A1 were 1.6 nM and 2.5 nM, respectively. Further, the inhibition entry with Mus musculus [3] was “inactive”. Also, the Activity result in data set [2] is given as “Non-toxic”.
For the molecule `Nc1nc(-c2ccc(Cl)cc2)c2c(n1)-c1ccccc1C2=O`, in the data set with Mus musculus [3], the inhibition entry was “inactive”. Moreover, in data set [2], the Activity entry was “Non-toxic”.
For `CC(=O)N1CCN(Cc2cccc3c2-c2nc(N)nc(-c4ccccc4)c2C3=O)CC1`, the figures for the inhibition constant Ki on Adenosine receptor A2a and on Adenosine receptor A1 were 7.9 nM and 34.1 nM, respectively. The molecule further showed an ED50 in the data set on Mus musculus [1] of 10.7 mg/kg.
Take `N#Cc1cccc(-c2nc(N)nc3c2C(=O)c2cccc(CN4CCOCC4)c2-3)c1`: the Ki at Adenosine receptor A2a turned out to be 5.4 nM; on Adenosine receptor A1 it was 75 nM. Besides, in the data set on Mus musculus [1], the 50% effect level (ED50) was put at a dose of 1.7 mg/kg.
For `Nc1nc(-c2ccc(F)cc2)c2c(n1)-c1c(CN3CCCC3)cccc1C2=O` the same measures were 3.6 nM, 85 nM and 0.8 mg/kg.
For `Nc1nc(-c2ccc(F)cc2)c2c(n1)-c1cc(CN3CCCC3)ccc1C2=O` the same measures were 12.8 nM, 66.2 nM and 1.6 mg/kg.
On the same counts, the results for `CN1CCN(Cc2ccc3c(c2)-c2nc(N)nc(-c4ccc(F)cc4)c2C3=O)CC1` are 29.8 nM, 225 nM and 3.5 mg/kg.
In the case of `CC1CCC(C)N1Cc1cccc2c1-c1nc(N)nc(-c3ccccc3)c1C2=O` (stereo unspecified), the results for the inhibition constant Ki at Adenosine receptor A2a and on Adenosine receptor A1 were 11.3 nM and 140 nM, respectively. For the same molecule, in the data set with Mus musculus [3], the inhibition entry was “inactive”.
Consider `Nc1nc(-c2nccs2)c2c(n1)-c1ccccc1C2=O`, for which the Ki at Adenosine receptor A2a stood at 0.5 nM. In addition, in the data set on Mus musculus [3], the inhibition entry was “inactive”.
On to `Nc1nc(-c2ccccc2)c2c(n1)-c1c(CN3CCCCC3)cccc1C2=O`, for which the values for the inhibitory constant (Ki) at Adenosine receptor A2a and at Adenosine receptor A1 were 14.3 nM and 40.8 nM, respectively. Also, in the data set on Mus musculus [1], the ED50 amounted to 5 mg/kg.
For `Nc1nc(-c2ccc(F)cc2)c2c(n1)-c1cc(CN3CCCCC3)ccc1C2=O` the same measures were 9.9 nM, 95.7 nM and 0.6 mg/kg.
On to `CCN(CC)Cc1cccc2c1-c1nc(N)nc(-c3ccccc3)c1C2=O`, for which the Ki at Adenosine receptor A2a is 18.3 nM; at Adenosine receptor A1 it was 107 nM. Also, the inhibition entry with Mus musculus [3] was “inactive”.
As for `Nc1nc(-c2ccccc2)c2c(n1)-c1ccccc1C2=O`, the Ki at Adenosine receptor A1 worked out at 1.1 nM. For the same molecule, the ED50 in the data set on Mus musculus [1] is 8 mg/kg. In addition, the Activity result in data set [2] is “Non-toxic”.
As to `CN(C)CCN(C)Cc1ccc2c(c1)-c1nc(N)nc(-c3ccccc3)c1C2=O`, the results for the Ki on Adenosine receptor A2a and at Adenosine receptor A1 were 7.8 nM and 20 nM, respectively.
Turning to `Nc1nc(-c2ccco2)c2c(n1)-c1ccccc1C2=O`, affinity at Adenosine receptor A1 was put at a Ki of 0.4 nM. This molecule also yielded an ED50 in the data set with Mus musculus [1] of 5 mg/kg. Moreover, the Activity result in data set [2] is “Toxic”.
Take `Nc1nc(-c2ccncc2)c2c(n1)-c1ccccc1C2=O`: the inhibition result in the data set on Mus musculus [3] was “inactive”.
As for `Nc1nc(-c2ccc(F)cc2)c2c(n1)-c1c(CN3CCOCC3)cccc1C2=O`, the Ki at Adenosine receptor A2a was 3.8 nM; on Adenosine receptor A1, 155 nM. In the data set with Mus musculus [1], this molecule registered an ED50 of 1.3 mg/kg.
Turning to `CN(C)CCN(C)Cc1cccc2c1-c1nc(N)nc(-c3ccccc3)c1C2=O`, the Ki at Adenosine receptor A2a amounted to 40.1 nM; at Adenosine receptor A1, 119 nM. Moreover, the inhibition result with Mus musculus [3] was “inactive”.
On to `COc1ccccc1-c1nc(N)nc2c1C(=O)c1ccccc1-2`, for which, in the data set with Mus musculus [3], the inhibition entry was “inactive”. Further, the Activity entry in data set [2] is listed as “Non-toxic”.
With `Nc1nc(-c2ccc(Cl)o2)c2c(n1)-c1ccccc1C2=O`, the Ki on Adenosine receptor A2a stood at 0.2 nM; on Adenosine receptor A1, 0.5 nM. Moreover, the inhibition entry with Mus musculus [3] is “inactive”.
Turning to `CN1CCN(Cc2cccc3c2-c2nc(N)nc(-c4ccccc4)c2C3=O)CC1`, the results for the inhibition constant (Ki) at Adenosine receptor A2a and on Adenosine receptor A1 were 11.3 nM and 94.2 nM, respectively. The 50% effect level with Mus musculus [1] (ED50) was put at a dose of 7.8 mg/kg.
On the same counts, the results for `Nc1nc(-c2ccccc2)c2c(n1)-c1c(CN3CCOCC3)cccc1C2=O` are 3.3 nM, 32.9 nM and 5.6 mg/kg.
Turning to `Nc1nc(-c2ccccc2)c2c(n1)-c1c(CN3CCCCCC3)cccc1C2=O`, the results for the Ki on Adenosine receptor A2a and on Adenosine receptor A1 were 8.6 nM and 95.2 nM, respectively. Also, the inhibition result with Mus musculus [3] was “inactive”.
